Inconclusive results and toxic doses are left out. Cut-off read from the data, not from the text of the source: active = T/C of 150% or more; inactive = T/C below 125%.
System: L1210 leukemia ip in BDF1 mice, survival T/C
Assay: NCI In Vivo Anticancer Drug Screen. Data for tumor model L1210 Leukemia (intraperitoneal) in B6D2F1 (BDF1) mice
Conditions: endpoint: mean survival time, higher = longer survival
Outline: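 Transplanted-tumor mice were given test agent; controls received vehicle only. Survival readings from the two groups were divided (treated over control).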

[1] = dose: 12.5 mg/kg/injection, schedule: Q04DX003 (ip), vehicle: saline with Tween-80
[2] = dose: 25.0 mg/kg/injection, schedule: Q04DX003 (ip), vehicle: saline with Tween-80
[3] = dose: 100.0 mg/kg/injection, schedule: Q01DX009 (ip), vehicle: saline
[4] = dose: 200.0 mg/kg/injection, schedule: Q01DX009 (ip), vehicle: saline
[5] = dose: 400.0 mg/kg/injection, schedule: Q01DX009 (ip), vehicle: saline
[6] = dose: 100.0 mg/kg/injection, schedule: Q01DX009 (ip), vehicle: Klucel (hydroxypropylcellulose) (HPC)
[7] = dose: 200.0 mg/kg/injection, schedule: Q01DX009 (ip), vehicle: Klucel (hydroxypropylcellulose) (HPC)
[8] = dose: 100.0 mg/kg/injection, schedule: Q04DX003 (ip), vehicle: Klucel (hydroxypropylcellulose) (HPC)
[9] = dose: 200.0 mg/kg/injection, schedule: Q04DX003 (ip), vehicle: Klucel (hydroxypropylcellulose) (HPC)
[10] = dose: 100.0 mg/kg/injection, schedule: Q04DX003 (ip), vehicle: saline with Tween-80
[11] = dose: 200.0 mg/kg/injection, schedule: Q04DX003 (ip), vehicle: saline with Tween-80
[12] = dose: 400.0 mg/kg/injection, schedule: Q04DX003 (ip), vehicle: saline with Tween-80
[13] = dose: 100.0 mg/kg/injection, schedule: Q04DX003 (ip), vehicle: saline
[14] = dose: 200.0 mg/kg/injection, schedule: Q04DX003 (ip), vehicle: saline
[15] = dose: 400.0 mg/kg/injection, schedule: Q04DX003 (ip), vehicle: saline
[16] = dose: 400.0 mg/kg/injection, schedule: Q01DX009 (ip), vehicle: Klucel (hydroxypropylcellulose) (HPC)
[17] = dose: 400.0 mg/kg/injection, schedule: Q04DX003 (ip), vehicle: Klucel (hydroxypropylcellulose) (HPC)
[18] = dose: 50.0 mg/kg/injection, schedule: Q01DX009 (ip), vehicle: saline

Measured: T/C

ClCCN(CCCl)CCCN1c2ccccc2Sc2ccccc21
inactive: dose: 6.25 mg/kg/injection, schedule: Q01DX009 (ip), vehicle: saline with Tween-80 109 % of control | dose: 12.5 mg/kg/injection, schedule: Q01DX009 (ip), vehicle: saline with Tween-80 115 % of control | [1] 97 % of control | dose: 16.0 mg/kg/injection, schedule: Q04DX003 (ip), vehicle: saline with Tween-80 114 % of control | dose: 16.0 mg/kg/injection, schedule: Q04DX003 (ip), vehicle: saline 100 % of control | [2] 97 % of control | dose: 26.0 mg/kg/injection, schedule: Q04DX003 (ip), vehicle: saline 107 % of control | dose: 35.0 mg/kg/injection, schedule: Q04DX003 (ip), vehicle: saline with Tween-80 90 % of control | dose: 35.0 mg/kg/injection, schedule: Q04DX003 (ip), vehicle: saline 103 % of control | dose: 50.0 mg/kg/injection, schedule: Q04DX003 (ip), vehicle: saline with Tween-80 121 % of control

Oc1ccc2ccccc2c1C=Nc1ccccc1
inactive: dose: 100.0 mg/kg/injection, schedule: Q01DX001 (ip), vehicle: other 91 % of control | dose: 200.0 mg/kg/injection, schedule: Q01DX001 (ip), vehicle: other 98 % of control | dose: 400.0 mg/kg/injection, schedule: Q01DX001 (ip), vehicle: other 96 % of control

CCOC(=O)/C=C(/OC(=O)c1ccccc1)c1ccccc1
inactive: dose: 100.0 mg/kg/injection, schedule: Q01DX001 (ip), vehicle: acetone 95 % of control | [3] 107 % of control | dose: 200.0 mg/kg/injection, schedule: Q01DX001 (ip), vehicle: acetone 97 % of control | [4] 107 % of control | dose: 400.0 mg/kg/injection, schedule: Q01DX001 (ip), vehicle: acetone 103 % of control | [5] 94 % of control

O=C(C(c1ccccn1)=P(c1ccccc1)(c1ccccc1)c1ccccc1)c1ccc([N+](=O)[O-])cc1
inactive: dose: 50.0 mg/kg/injection, schedule: Q01DX009 (ip), vehicle: Klucel (hydroxypropylcellulose) (HPC) 88 % of control | [6] 91 % of control | [7] 98 % of control

N#CC(/C=C/c1ccccc1)Nc1ccccc1N (stereo unspecified)
inactive: dose: 100.0 mg/kg/injection, schedule: Q01DX001 (ip), vehicle: saline with Tween-80 91 % of control | dose: 200.0 mg/kg/injection, schedule: Q01DX001 (ip), vehicle: saline with Tween-80 94 % of control | dose: 400.0 mg/kg/injection, schedule: Q01DX001 (ip), vehicle: saline with Tween-80 86 % of control

CC(C)(O)CNC(=O)c1cccc([N+](=O)[O-])c1
inactive: [8] 94 % of control | [9] 88 % of control

O=C(/C=C/c1ccccc1)c1ccc2c(c1)OCO2
inactive: dose: 100.0 mg/kg/injection, schedule: Q04DX003 (ip), vehicle: water 98 % of control | dose: 200.0 mg/kg/injection, schedule: Q04DX003 (ip), vehicle: water 96 % of control | dose: 400.0 mg/kg/injection, schedule: Q04DX003 (ip), vehicle: water 94 % of control

CC(=O)Nc1cc(C(=O)O)cc(NC(C)=O)c1C
inactive: [10] 103 % of control | [11] 98 % of control | [12] 101 % of control

O=C(Nc1cccc(C(F)(F)F)c1)C(O)C(O)C(O)C(O)CO (stereo unspecified)
inactive: [13] 91 % of control | [14] 94 % of control | [15] 91 % of control

COC(=O)N1C=Cc2ccccc2C1C#N (stereo unspecified)
inactive: [13] 107 % of control

CNC(=O)Nc1c(C)cccc1C
inactive: [6] 93 % of control | [8] 106 % of control | [7] 93 % of control | [9] 101 % of control | [16] 97 % of control | [17] 98 % of control

CC1=CC(C)(C)NC(=S)N1C
inactive: dose: 6.25 mg/kg/injection, schedule: Q04DX003 (ip), vehicle: saline with Tween-80 96 % of control | [1] 95 % of control | [2] 95 % of control | dose: 166.0 mg/kg/injection, schedule: Q01DX Z (ip), vehicle: methylcellulose (MC) 87 % of control

COc1ccc(OC)c(NC(=O)CI)c1
inactive: dose: 25.0 mg/kg/injection, schedule: Q01DX001 (ip), vehicle: Klucel (hydroxypropylcellulose) (HPC) 103 % of control | dose: 50.0 mg/kg/injection, schedule: Q01DX001 (ip), vehicle: Klucel (hydroxypropylcellulose) (HPC) 104 % of control | dose: 100.0 mg/kg/injection, schedule: Q01DX001 (ip), vehicle: Klucel (hydroxypropylcellulose) (HPC) 98 % of control

NC(Cc1ncc[nH]1)C(=O)O (stereo unspecified)
inactive: dose: 100.0 mg/kg/injection, schedule: Q04DX002 (ip), vehicle: other 104 % of control | dose: 200.0 mg/kg/injection, schedule: Q04DX002 (ip), vehicle: other 96 % of control | dose: 400.0 mg/kg/injection, schedule: Q04DX002 (ip), vehicle: other 119 % of control

O=C1C(=O)C(C(=O)c2ccccc2)C(=O)C1C(=O)c1ccccc1 (stereo unspecified)
inactive: dose: 55.0 mg/kg/injection, schedule: Q01DX Z (ip), vehicle: saline 109 % of control | dose: 83.0 mg/kg/injection, schedule: Q01DX Z (ip), vehicle: saline 100 % of control | dose: 125.0 mg/kg/injection, schedule: Q01DX Z (ip), vehicle: saline 93 % of control

O=c1o[nH]c(-c2ccccc2)c1-c1ccccc1
inactive: dose: 1.56 mg/kg/injection, schedule: Q04DX003 (ip), vehicle: saline 98 % of control | dose: 3.12 mg/kg/injection, schedule: Q04DX003 (ip), vehicle: saline 102 % of control | dose: 6.25 mg/kg/injection, schedule: Q04DX003 (ip), vehicle: saline 102 % of control | dose: 12.5 mg/kg/injection, schedule: Q04DX003 (ip), vehicle: saline 94 % of control | [11] 93 % of control

CC(CS(=O)(=O)O)NC(CO)(CO)CO (stereo unspecified)
inactive: [3] 104 % of control | [13] 100 % of control | [4] 98 % of control | [14] 100 % of control | [5] 96 % of control | [15] 100 % of control

Oc1ccc(-c2nnc(-c3ccccc3)nn2)cc1
inactive: dose: 100.0 mg/kg/injection, schedule: Q04DX003 (ip), vehicle: gum acacia 104 % of control | dose: 200.0 mg/kg/injection, schedule: Q04DX003 (ip), vehicle: gum acacia 95 % of control | dose: 400.0 mg/kg/injection, schedule: Q04DX003 (ip), vehicle: gum acacia 95 % of control

CCOC(=O)c1cnn(-c2ccccc2)c1N
inactive: dose: 25.0 mg/kg/injection, schedule: Q01DX009 (ip), vehicle: saline 104 % of control | [18] 108 % of control | [6] 98 % of control | [3] 105 % of control | [8] 96 % of control | [7] 100 % of control | [9] 100 % of control | [16] 102 % of control | [17] 100 % of control

CCCCCCCCCCCCCCCC[N+]1(CCCC)CCOCC1
inactive: [8] 86 % of control | [9] 101 % of control

C=CN(C=C)P(=O)(C1C(=O)C(C(=O)OCC)C(c2ccc(OC(C)=O)cc2)C(C(=O)OCC)C1=O)C1C(=O)C(C(=O)OCC)C(c2ccc(OC(C)=O)cc2)C(C(=O)OCC)C1=O (stereo unspecified)
inactive: [10] 97 % of control | [11] 96 % of control | [12] 100 % of control

CC1CC1C(=O)Cl (stereo unspecified)
inactive: [18] 97 % of control | [3] 101 % of control
